Measured values as given in BigSolDB 2.1.

Settings: 298.15 K

O=C(O)c1ccc(Cl)c(Cl)c1
Settings | solubility (mole fraction)
in 1,4-dioxane | 0.0493
in 2-butoxyethanol | 0.0399
in 2-ethoxyethanol | 0.0445
in 2-isopropoxyethanol | 0.0483
in 2-methyl-1-butanol | 0.0183
in 2-methyl-1-pentanol | 0.0239
in 2-pentanol | 0.0248
in 2-propoxyethanol | 0.0468
in 3-methoxy-1-butanol | 0.0503
in 4-methyl-2-pentanol | 0.0255
in MTBE | 0.0358
in THF | 0.101
in dibutyl ether | 0.00969
in diethyl ether | 0.0308
in diisopropyl ether | 0.0126
in ethanol | 0.0173
in ethyl acetate | 0.0164
in isobutanol | 0.0139
in isopentanol | 0.0216
in isopropanol | 0.0177
in methyl acetate | 0.0119
in methyl butyrate | 0.0143
in n-butanol | 0.0203
in n-butyl acetate | 0.0206
in n-heptanol | 0.0251
in n-hexanol | 0.0238
in n-octanol | 0.0242
in n-pentanol | 0.0218
in n-pentyl acetate | 0.0216
in n-propanol | 0.0185
in n-propyl acetate | 0.0176
in sec-butanol | 0.019
in tert-butanol | 0.0345
